Columns and labels:
osteoblasts [1] = assay: Osteogenesis assay in osteogenic induction media, von Kossa staining; assay type: cell-based, mouse
Procedure: To assess the functional capacity of SB216763-treated osteoblasts, they were treated with osteogenic induction media in vitro. […] A transplantation experiment was then performed to examine the capacity for bone formation using a well-established bone formation assay in vivo. This assay was adapted and eGFP positive cells were used, which were isolated from SB216763-treated Flk1-eGFP osteoblasts (FIG. 2, Part A).
The cells were then subjected to osteogenic induction media. […] Cells was transplanted into nude mice to test ectopic bone formation.

osteoblasts [2] = assay: RNA sequencing of SB216763-treated osteoblasts; assay type: cell-based, mouse
Description: The differential expression profiles of SB216763-treated osteoblasts using RNA sequencing was examined. […] These overlapped with 1357 genes identified as low expression when osteoblast vs EC was compared, and a 307-gene cohort with decreased expression in both analyses was identified (FIG. 1, Part G). Gene Ontology (GO) termed these genes enriched for the signal pathway of osteoblastic differentiation and bone development (FIG. 1, Part G). Similarly, 519 genes with increased expression after SB21673 treatment were found (FIG. 1, Part H).
For RNA sequencing, osteoblasts were treated with 10 μM SB216763 for 14 days, and RNA was isolated for library preparation. The sequencing was conducted by the Pathology Research Services at UCLA. Spliced Transcripts Alignment to Reference (STAR) was used for the read alignment. Cufflinks was used to assemble transcripts, estimate their abundances, and assess the differential expression. GO analysis and pathway enrichment of the identified genes were performed.

[3] = test system: aortic cells of Osx-GfptgMgp−/− mice; assay: Osteoblastic-lineage tracing in Osx-GfptgMgp−/− mice, FACS of aortic cells; assay type: in vivo, mouse; details: Osx-GfptgMgp−/− mice treated for 2 weeks
Procedure: Then, mice were treated with or without SB216763 for 2 weeks. […] Then, the alteration of GFP and CD31 double positive cells (GFP+CD31+) were characterized after SB216763 treatment. […] Same numbers of cells of each group were used to perform a transplantation experiment to examine the capacity of bone formation by using bone formation assay in vivo.
FACS analysis was performed as previously described. The cells were stained with fluorescein isothiocyanate (FITC)-, phycoerythrin (PE)-, or Alexa Fluor 488 (AF-488)-conjugated antibodies against CD31 and VE-cadherin (all from BD biosciences, 550274 and 562243), osterix (Santa Cruz Biotechnology, sc-22536). Nonspecific fluorochrome- and isotype-matched IgGs (BD Pharmingen) served as controls.

[4] = test system: eGFP positive cells from SB216763-treated Flk1-eGFP osteoblasts; assay: Tube formation assay in vitro; assay type: cell-based, mouse
Procedure: Then, same cells in a model of hindlimb ischemia in nude mice to evaluate the capacity of eGFP positive cells in vascular repair were tested. After ligation of the proximal and distal femoral artery, eGFP positive cells were transplanted (FIG. 2, Part F). Human aortic endothelial cells (HAECs) and osteoblasts were used as controls.
Tube formation assays in vitro was then tested. […] Cells into hindlimb ischemia mouse model were transplanted.

[5] = test system: bone tissue of wild type mice; assay: Effect of long treatment on bone formation in wild type mice; assay type: in vivo, mouse; details: wild type mice at 8 weeks of age, 5 ug/g daily for 8 weeks
Procedure: To determine if long-treatment of SB216763 has any effects on bone formation, wild type mice were treated at 8 weeks of age with SB216763 (5 ug/g daily) for 8 weeks. After treatment, the bone tissue was examined by micro-CT imaging and immunostaining.
MicroCT imaging was performed at the Crump Imaging Center at UCLA. All the samples were scanned on a high-resolution, volumetric microCT scanner (CT125). The image data were acquired with the following parameters: 10 μm isotropic voxel resolution; 200 ms exposure time; 2,000 views and 5 frames per view. The microCT-generated DICOM files were used to analyze the samples and to create volume renderings of the regions of interest. The raw data files were viewed using the MicroView 3-D volume viewer and analysis tool (GE Healthcare) and AltaViewer™ Software. Additionally, images of the samples were generated using SCIRun (Scientific Computing and Imaging Institute).

SMAD1 and β-catenin = assay: Immunoblotting of SMAD1, phosphorylated SMAD1 and β-catenin in treated osteoblasts; assay type: cell-based, mouse; details: different doses
Description: The expression of transcription factors that are known to be involved in bone formation or vascular development were screened. […] To determine if excess β-catenin affected SMAD1 expression, β-catenin in SB216763-treated osteoblasts was depleted by using siRNA. […] DNA-binding sites of β-catenin by locating the binding motifs in Smad1 gene was explored, and identified four individual sites located at −196 bp, −1454 bp, −2805 bp and −4729 bp upstream of exon1 of Smad1 gene (FIG. 3, Part D). […] Then, transcriptional status of Smad1 was determined by examining the histone modification, including trimethylated histone H3 lysine 4 (H3K4me3) associated with active transcription and H3K27me3 a closed chromatin mark.
Immunoblotting was performed as previously described. Equal amounts of tissue lysates were used for immunoblotting. Blots were incubated with specific antibodies to SMAD1, GSK3α and GSK3β (all from Cell Signaling Technology, 9743, 433T and 93115), β-catenin and cbfa1 (all from R&D system, AF1329 and MAB2006), osterix (Santa Cruz Biotechnology, sc-22536), Flk1 and VE-cadherin (all from BD Bioscience, 55307 and 562242), vWF (Dako, A0082). 3-Actin (Sigma-Aldrich, A2228) was used as a loading control. Immunofluorescence was performed as previously described in detail. […]

[6] = 4-fold differential threshold level

Cn1cc(C2=C(c3ccc(Cl)cc3Cl)C(=O)NC2=O)c2ccccc21 [SB216763]
mineralization, von Kossa staining (osteoblasts [1]; SB216763-treated cells after restoring SMAD1 or depletion of β-catenin): clear mineralization | mineralization, von Kossa staining (osteoblasts [1]; SB216763-treated cells in osteogenic induction media): lack of mineralization | transcript profile (osteoblasts [2]; 10 μM for 14 days): increased the similarities between the treated osteoblasts and ECs | cohort with decreased expression in both analyses (overlap with osteoblast vs EC low expression genes) (osteoblasts [2]; [6]): 307 gene | cohort with increased expression in both analyses (overlap with EC vs osteoblast high expression genes) (osteoblasts [2]; [6]): 235 genes | genes decreased in expression (osteoblasts [2]; [6]): 827 genes | genes with increased expression (osteoblasts [2]; [6]): 519 genes | aortic cells co-expressing GFP and CD31, FACS [3]: decreased number of cells that co-expressed GFP and CD31 | aortic cells expressing only CD31, FACS [3]: increased number of cells that only expressed CD31 | tube formation ([4]; SB216763-treated cells with β-catenin depletion): decrease of tube formation | tube formation ([4]; eGFP positive cells from treated osteoblasts): robust tube formation | hemorrhage in the bone tissue [5]: had not detected any hemorrhage | microstructure of bone tissues and vasculature, immunostaining of CD31 and osterix [5]: no changes in the microstructure of bone tissues and vasculature | relative bone volumes and connectivity densities, micro-CT ([5]; treated vs non-treated): no differences | expression and phosphorylation of SMAD1 (SMAD1 and β-catenin): dose-dependent decrease | β-catenin protein level (SMAD1 and β-catenin): robust increase
